{"source": "patent US20050256179A1", "about": "“Selective pharmacologic inhibition of protein trafficking and related methods of treating human diseases” (priority 2003, published 2005)", "key": {"calnexin": {"system": "calnexin", "assay": "Calnexin expression by Western blotting (control)", "assay_type": "cell-based", "description": "The culture medium was removed by vacuuming (for attached cells) or by low speed centrifugation (for suspension cells) for 5-7 minutes at room temperature. The cells were wasedh twith PBS, spun at 1200 rpm and the cell pellets were kept on ice. 300 μl/2.0×10^7 cells of ice cold lysis buffer was added with freshly added protease inhibitors. Cell pellets were gently resuspended and incubated on ice for at least 30 min, vortexed a few times during incubation. Cell lysate was spun at 14,000 rpm for 2-5 min at 4° C. The supernatant was transferred to a new microfuge tube and the pellet was discarded. An aliquot of sample was mixed with an equal volume of 2× sample buffer (InVitrogen), and stored at −80° C. Protein concentration was determined by using “BCA protein assay reagent kit” from Pierce.\nProtein samples (in sample buffer) were boiled for 1-3 minutes and put on ice. Same amount of protein were loaded on the NuPage gel (InVitrogen). […]\nTo further examine the putative protein trafficking effects of AVP 893, other proteins in this pathway were tested in vitro in B16 and other cell lines. […] Other cell lines were tested for their expression of GS28 and nicastrin and found to respond similarly to drug, although quantitative differences were evident. […]"}, "HSV-2": {"system": "HSV-2", "assay": "HSV-2 plaque formation in Vero cells", "assay_type": "cell-based", "description": "An important potential consequence of blocking normal vesicle movement between the ER and golgi is the inhibition of viral protein maturation and intracellular propagation. Most viruses rely on the classical ER-to-golgi pathway for assimilating its proteins and, ultimately, infectivity. Brefeldin A causes the accumulation of viral proteins in the ER-golgi. The capacity of AVP 893 to inhibit viral propagation was tested in vitro by infecting Vero cells with HSV-2 and observing the effect of increasing concentrations of drug (FIG. 44). Vero cells (1 million/ml) were cultured overnight and inoculated with about 150 PFU of live type 2 Herpes Virus (HSV-2, ATCC) about 1 hour after addition of AVP 893. After 48 hours, media was removed and the cells washed with saline and stained with Biological Plaque Stain for 20 min. One ml of water was added and the liquid removed before quantifying virus by enumerating PFU."}, "MOLT4 cells": {"system": "MOLT4 cells", "assay": "Electron microscopic analysis of golgi structure", "assay_type": "cell-based", "settings": "200 ng/mL, 2 hrs and 18 hrs", "description": "Experiments were conducted to examine the golgi structure and morphology on the ultrastructural level following treatment with AVP 893. […] This finding was repeated with Vero cells, where AVP 893 was applied for 1 hr, 4 hrs, and 18 hrs, with the later two exposures resulting in disruption of cisternal structure (data not shown). We therefore conclude that AVP 893 disturbs the structure of the golgi cistemae within a few hours of treatment."}, "Rab1b": {"system": "Rab1b", "assay": "Rab1b expression by Western blotting", "assay_type": "cell-based", "description": "Protein samples (in sample buffer) were boiled for 1-3 minutes and put on ice. Same amount of protein were loaded on the NuPage gel (InVitrogen). After the electrophoresis was complete, proteins were transferred from the gel to a PVDF membrane using the electro-blotting apparatus from InVitrogen; the voltage was set to 25 for 2-3 hr. Block non-specific binding by incubating membrane with 5% milk (in PBS, 0.1% tween 20) for at least 30 min at room temperature or overnight at 4° C. The blocked membrane was incubated with primary antibody (See TABLE 2) diluted in 5% milk for 1 hour at room temperature. Optimal antibody dilution depends on the company, the amount of protein. Dilutions of 1:1000 were generally used for the primary antibodies from Santa Cruz. The membrane was washed with PBS, 0.1% tween 3-4 times 5 mins. The membrane was incubated for 30-60 minutes at room temperature with horseradish peroxidase (HRP) conjugated secondary antibody diluted in 5% milk. We usually used 1:4000 dilution for the secondary antibody from Santa Cruz. The membrane was washed 3-4 times with PBS, 0.1% tween, each time 15 minutes. The detection solutions A and B were mixed in a ratio 40:1 and Pipetted onto the membrane, and incubated for 5 min at RT. A sheet of Hyper film ECL was placed on the top of the membrane in the dark and exposed for 1 min, or adjust accordingly. […]"}, "Mannosidase II": {"system": "Mannosidase II", "assay": "Mannosidase II immunocytochemistry", "assay_type": "cell-based", "description": "GS15, GS28, GPP130, and Mannosidase II, sparing the golgi structural protein GM-130 and having little effect on the Rab GTPase Rab6. Furthermore, these affects were most pronounced following overnight (16-20 hr) incubations with AVP 893, although some affects at early time points were seen. These conclusions were drawn from the western blot analysis (FIG. 29), as well as from the immunocytochemical studies (FIGS. 30-31).\nAdditional evidence that AVP 893 has unique activity against resident golgi proteins (e.g. Mannosidase II), was found using both shorter durations of drug exposure and immunocytochemistry instead of western blot analysis (FIG. 43)."}, "HSV": {"system": "HSV", "assay": "Guinea pig topical HSV model", "assay_type": "in vivo", "settings": "data not shown", "description": "Representative viruses from families likely to utilize the golgi were tested. […] (data not shown)."}}, "data": [{"smiles": "O=C(Nc1ccc(-c2nc3cc(NC(=O)C4CCCCC4)ccc3[nH]2)cc1)C1CCCCC1", "note": "[AVP 893]", "values": [{"measurement": "levels of calnexin", "setting": "calnexin; drug-treated cell lines", "value": "unchanged"}, {"measurement": "calnexin expression", "setting": "calnexin; stimulated BALB/c spleen cells, 100 ng/ml, 20 hours", "value": "minimally affected"}, {"measurement": "plaque formation", "setting": "HSV-2; HSV-2, 48 hours", "value": "suppressed plaque formation at all concentrations tested"}, {"measurement": "concentration giving total block of plaque formation", "setting": "HSV-2; about 150 PFU HSV-2, 48 hours", "value": 300, "unit": "ng/mL"}, {"measurement": "golgi structure by electron microscopy", "setting": "MOLT4 cells", "value": "no golgi cisternae were found"}, {"measurement": "Rab1b expression", "setting": "Rab1b; 3T3 cells", "value": "not affected in 3T3 cells"}, {"measurement": "Rab1b expression", "setting": "Rab1b; spleen cells", "value": "suppressed in spleen cells"}, {"measurement": "Mannosidase II staining pattern", "setting": "Mannosidase II; 1 hr of treatment, immunocytochemistry", "value": "no apparent effect"}, {"measurement": "Mannosidase II in golgi", "setting": "Mannosidase II; after 4 hrs of application", "value": "little to no discernible amount of the enzyme remaining after 4 hrs"}, {"measurement": "viral activity in vivo", "setting": "HSV", "value": "may inhibit viral activity in vivo"}]}]}
